In general, half-life refers to the time needed for the level to fall by half in the phase considered. High values mean slow loss, low ones fast loss. Broadly, the share remaining is the share of the starting amount still present when the sample was taken. The low end stands for more turnover, the high end for less turnover.

The values that follow come from publication PMC7413308 (ARKIVOC : free online journal of organic chemistry, 2018).

Data set [1] is described as follows: In vitro microsomal stability of analogs. The note with it: for half-life / remaining at 1 h / remaining at 2 h: human, liver microsomes; for remaining at 1 h / remaining at 2 h: Microsomal stability (HLM) % remaining. In kind it is in vitro ADME, human.
A short description of data set [2]: In vitro microsomal stability of analogs. In kind it is in vitro ADME, mouse. The note with it: for half-life / remaining at 2 h / remaining at 1 h: mouse, liver microsomes; for remaining at 2 h / remaining at 1 h: Microsomal stability (MLM) % remaining. In general terms: Liver microsomes are a subcellular fraction often used to study metabolism.
Data set [3] relates to HEK293 (kidney) cell line. Briefly: In vitro cytotoxicity, cell viability. In kind it is cell-based. The note with it: 48 h incubation, Cell-Titer Glo cell viability.
The next data set concerns HEPG2 (liver) cell line. In words: In vitro cytotoxicity, cell viability. The note with it: 48 h incubation, Cell-Titer Glo cell viability. The format is cell-based.
The mark [4] stands for this setting: footnote d: assessed at 1-hour incubation time.
The mark [5] stands for this setting: footnote a: compound not detected after 10 minutes.

Where “and” joins values, the source holds several entries; their conditions need not be identical. Equal values may be shown once.

Consider `COC(=O)c1ncn2c1[C@H](C)N=C(c1ccccc1F)c1cc(Br)ccc1-2` [4a, (S)-Methyl-8-bromo-6-(2-fluorophenyl)-4-methyl-4H-benzo[f]imidazo[1,5-a][1,4]diazepine-3-carboxylate], for which the values for the half-life in data set [1] and in data set [2] were 0.167 ± 0.0167 h and 1.93 ± 0.217 h, respectively. Further, the share remaining at 1 h in data set [1] (setting [4]) came to 2 ± 0.3%. The compound further showed an amount remaining at 2 h in data set [2] (after 2 hr) of 41 ± 0.6%. Besides, the “HEK293 LD50” value in data set [3] stood at 98.5 ± 7.9 µM.

Consider `C#Cc1ccc2c(c1)C(c1ccccc1F)=N[C@@H](C)c1c(C(=O)OC)ncn1-2` [5a, (S)-Methyl-8-ethynyl-6-(2-fluorophenyl)-4-methyl-4H-benzo[f]imidazo[1,5-a][1,4]diazepine-3-carboxylate], for which the half-life was found to be 1.98 ± 0.35 h in data set [1] and 3.6 ± 0.467 h in data set [2]. The share remaining at 1 h in data set [1] (setting [4]) stood at 43 ± 0.4%. Besides, in data set [2] (after 2 hr), the fraction remaining at 2 h is 62 ± 0.5%. Also, in data set [3], the “HEK293 LD50” value amounted to 68.2 ± 4.3 µM.

`C#Cc1ccc2c(c1)C(c1ccccc1F)=N[C@@H](C)c1c(C(=O)OCCC)ncn1-2` [5b, (S)-Propyl-8-ethynyl-6-(2-fluorophenyl)-4-methyl-4H-benzo[f]imidazo[1,5-a][1,4]diazepine-3-carboxylate]: the half-life is < 0.0833 h in data set [1] and 0.4 h in data set [2]. Further, in data set [2] (setting [4]), the fraction remaining at 1 h came out at 12 ± 0.2%. Also, in data set [3], the “HEK293 LD50” value is 53.2 ± 4.4 µM. The “HEPG2 LD50” value in the data set with HEPG2 (liver) cell line turned out to be 56.3 ± 4.0 µM.

Consider `C#Cc1ccc2c(c1)C(c1ccccc1F)=N[C@@H](C)c1c(C(=O)OC(C)C)ncn1-2` [5c, (S)-Isopropyl-8-ethynyl-6-(2-fluorophenyl)-4-methyl-4H-benzo[f]imidazo[1,5-a][1,4]diazepine-3-carboxylate], for which the half-life in data set [1] was found to be 0.95 ± 0.0333 h; in data set [2] it was 3.78 ± 0.267 h. Moreover, the figures for the share remaining at 1 h in data set [1] (setting [4]) and in data set [2] (setting [4]) were 47 ± 0.2% and 83 ± 0.1%, respectively. Further, the “HEK293 LD50” value in data set [3] came out at 48.9 ± 4.4 µM. Also, in the data set on HEPG2 (liver) cell line, the “HEPG2 LD50” value was 39.9 ± 2.8 µM.

As to `C#Cc1ccc2c(c1)C(c1ccccc1F)=N[C@@H](C)c1c(C(=O)OC(C)(C)C)ncn1-2` [5d, (S)-tert-Butyl-8-ethynyl-6-(2-fluorophenyl)-4-methyl-4H-benzo[f]imidazo[1,5-a][1,4]diazepine-3-carboxylate], the half-life worked out at 8.57 ± 1.92 h in data set [1] and 3.27 ± 0.333 h in data set [2]. Further, the results for the share remaining at 1 h in data set [1] (setting [4]) and in data set [2] (setting [4]) were 89 ± 0.2% and 78 ± 0.2%, respectively. Moreover, the “HEPG2 LD50” value with HEPG2 (liver) cell line turned out to be 21.4 ± 1.9 µM.

Take `C#Cc1ccc2c(c1)C(c1ccccc1F)=N[C@@H](C)c1c(C(=O)OC(C)(C)CC)ncn1-2` [5e, (S)-tert-Pentyl-8-ethynyl-6-(2-fluorophenyl)-4-methyl-4H-benzo[f]imidazo[1,5-a][1,4]diazepine-3-carboxylate]: the “HEK293 LD50” value in data set [3] came to 17.2 ± 1.6 µM. Further, the “HEPG2 LD50” value with HEPG2 (liver) cell line is 17.1 ± 1.4 µM.

For `C#Cc1ccc2c(c1)C(c1ccccc1F)=N[C@@H](C)c1c(C(=O)OCC(F)(F)F)ncn1-2` [5f, (S)-2,2,2-Trifluoroethyl-8-ethynyl-6-(2-fluorophenyl)-4-methyl-4H-benzo[f]imidazo[1,5-a][1,4]diazepine-3-carboxylate], the half-life in data set [1] and in data set [2] was < 0.0833 h throughout. For the same compound, in data set [3], the “HEK293 LD50” value was 138 µM and 138.1 ± 31.8 µM. Moreover, in the data set with HEPG2 (liver) cell line, the “HEPG2 LD50” value is >400 µM.

For `C#Cc1ccc2c(c1)C(c1ccccc1F)=N[C@@H](C)c1c(C(=O)OC3CC3)ncn1-2` [5g, (S)-Cyclopropyl-8-ethynyl-6-(2-fluorophenyl)-4-methyl-4H-benzo[f]imidazo[1,5-a][1,4]diazepine-3-carboxyl-ate], the “% remaining in HLM” value in data set [1] (after 10, 20, and 30 minutes in HLM) is “less than 5%”. Also, in data set [1] (setting [5]), the “Microsomal stability (HLM) % remaining” value was < 5.0^a % and the “Microsomal stability (HLM) Half-life” value was < 5^a min. In data set [2] (setting [4]), the “Microsomal stability (MLM) % remaining” value is 11.0 ± 0.2^d % and the “Microsomal stability (MLM) Half-life” value is given as 19 ± 2^d min. Besides, the “HEK293 LD50” value in data set [3] worked out at 35.8 ± 3.3 µM. The “HEPG2 LD50” value with HEPG2 (liver) cell line came to 85.1 ± 3.8 µM.

As to `C#Cc1ccc2c(c1)C(c1ccccc1F)=N[C@@H](C)c1c(C(=O)NC)ncn1-2` [8a, (S)-8-Ethynyl-6-(2-fluorophenyl)-N,4-dimethyl-4H-benzo[f]imidazo[1,5-a][1,4]diazepine-3-carboxamide], the fraction remaining at 2 h worked out at 92 ± 0.3% in data set [1] (after 2 hr) and 86 ± 0.2% in data set [2] (after 2 hr).

Take `C#Cc1ccc2c(c1)C(c1ccccc1F)=N[C@@H](C)c1c(C(=O)NCC)ncn1-2` [8b, (S)-N-Ethyl-8-ethynyl-6-(2-fluorophenyl)-4-methyl-4H-benzo[f]imidazo[1,5-a][1,4]diazepine-3-carboxamide]: the results for the half-life in data set [1] and in data set [2] were 33 ± 0.833 h and 32.7 ± 0.767 h, respectively. The fraction remaining at 2 h in data set [1] (after 2 hr) and in data set [2] (after 2 hr) was > 92% throughout. The “HEK293 LD50” value in data set [3] worked out at 95.5 ± 12.6 µM. The “HEPG2 LD50” value in the data set on HEPG2 (liver) cell line is 65.4 ± 7.3 µM.

As to `C#Cc1ccc2c(c1)C(c1ccccc1F)=N[C@@H](C)c1c(C(=O)NC3CC3)ncn1-2` [8c, (S)-N-Cyclopropyl-8-ethynyl-6-(2-fluorophenyl)-4-methyl-4H-benzo[f]imidazo[1,5-a][1,4]diazepine-3-carbox-amide], in data set [1] (setting [4]), the “Microsomal stability (HLM) % remaining” value is reported as 89.0 ± 0.4^d % and the “Microsomal stability (HLM) Half-life” value is on record as 1625 ± 803^d min. In data set [2] (setting [4]), the “Microsomal stability (MLM) % remaining” value is given as 72.0 ± 0.3^d % and the “Microsomal stability (MLM) Half-life” value is given as 320 ± 34^d min. For the same compound, the “HEK293 LD50” value in data set [3] is 63.8 ± 3.0 µM. Besides, in the data set on HEPG2 (liver) cell line, the “HEPG2 LD50” value turned out to be 93.5 ± 5.7 µM.

For `CCOC(=O)c1ncn2c1[C@H](C)N=C(c1ccccc1F)c1cc(C3CC3)ccc1-2` [compound 3, (S)-Ethyl-8-cyclopropyl-6-(2-fluorophenyl)-4-methyl-4H-benzo[f]imidazo[1,5-a][1,4]diazepine-3-carboxylate], the half-life was < 0.0833 h in data set [1] and 0.767 ± 0.05 h in data set [2]. The same compound showed an amount remaining at 2 h in data set [2] (after 2 hr) of 16 ± 0.4%. Besides, the “HEK293 LD50” value in data set [3] amounted to 58.0 ± 6.0 µM. In addition, in the data set with HEPG2 (liver) cell line, the “HEPG2 LD50” value worked out at 87.0 ± 6.6 µM.

Consider `C#Cc1ccc2c(c1)C(c1ccccc1F)=N[C@@H](C)c1c(C(=O)O)ncn1-2` [compound 6, (S)-8-Ethynyl-6-(2-fluorophenyl)-4-methyl-4H-benzo[f]imidazo[1,5-a][1,4]diazepine-3-carboxylic acid], for which the half-life in data set [1] turned out to be 5.97 ± 0.933 h; in data set [2] it was 2.32 ± 0.183 h. In data set [1] (after 2 hr), this compound showed a fraction remaining at 2 h of 74 ± 0.4%. Besides, the share remaining at 1 h in data set [2] (setting [4]) was determined as 54 ± 0.3%. Moreover, the “HEK293 LD50” value in data set [3] was >400 µM. The “HEPG2 LD50” value with HEPG2 (liver) cell line is >400 µM.

On to `C#Cc1ccc2c(c1)C(c1ccccc1F)=N[C@@H](C)c1c(C(=O)SCC)ncn1-2` [compound 7, (S)-S-Ethyl-8-ethynyl-6-(2-fluorophenyl)-4-methyl-4H-benzo[f]imidazo[1,5-a][1,4]diazepine-3-carbothioate], for which, in data set [1] (after 2 hr), the “Microsomal stability (HLM) % remaining” value worked out at 28.0 ± 0.3% and the “Microsomal stability (HLM) Half-life” value is given as 101 ± 19 min. For the same compound, in data set [2] (after 2 hr), the “Microsomal stability (MLM) % remaining” value came to 9.0 ± 0.5% and the “Microsomal stability (MLM) Half-life” value was 46 ± 6 min. Further, the “HEK293 LD50” value in data set [3] was determined as 20.5 ± 4.7 µM. Besides, in the data set with HEPG2 (liver) cell line, the “HEPG2 LD50” value was found to be 30.2 ± 9.7 µM.
